Laboratory results taken from ChEMBL document CHEMBL4602617, “Discovery and optimization of heteroaryl piperazines as potent and selective PI3Kδ inhibitors” (Bioorg Med Chem Lett, 2020).

Assays:
SRSF protein kinase 2 = SRSF protein kinase 2 (Homo sapiens, UniProt P78362); experiment: Inhibition of recombinant full length human GST-tagged SRPK2 expressed in baculovirus expression system using serine/threonine-07 peptide as substrate incubated for 60 mins in presence of ATP by Z'-LYTE assay
[1] = target: Rho-associated protein kinase 1 (Homo sapiens, UniProt Q13464); experiment: Inhibition of recombinant human GST-tagged ROCK1 catalytic domain expressed in baculovirus expression system using serine/threonine-7 peptide as substrate incubated for 60 mins in presence of ATP by Z'-LYTE assay
[2] = target: Mitogen-activated protein kinase kinase kinase kinase 5 (Homo sapiens, UniProt Q9Y4K4); experiment: Inhibition of recombinant full length human GST-tagged KHS1 expressed in baculovirus expression system using serine/threonine-7 peptide as substrate incubated for 60 mins in presence of ATP by Z'-LYTE assay
[3] = target: B1 bradykinin receptor (Homo sapiens) (UniProt P46663); experiment: Inhibition of human B1 bradykinin receptor at 10 uM relative to control
[4] = target: Tyrosine-protein kinase Lyn (Homo sapiens, UniProt P07948); experiment: Inhibition of recombinant full length human GST-tagged LYN-A expressed in insect cells using tyrosine-2 peptide as substrate incubated for 60 mins in presence of ATP by Z'-LYTE assay
Ephrin type-A receptor 3 = Ephrin type-A receptor 3 (Homo sapiens, UniProt P29320); experiment: Inhibition of tracer 236 binding to recombinant human His-tagged EPHA3 (569 to 976 residues) expressed in baculovirus expression system measured after 60 mins in presence of ATP by Lanthascreen assay
[5] = target: Neuropeptide Y receptor type 1 (Homo sapiens) (UniProt P25929); experiment: Displacement of [[125I]peptide YY from full length human SK-N-MC cell-derived Y1 neuropeptide receptor at 10 uM measured after 60 mins by radiometric scintillation analysis relative to control; type: cell-based
[6] = target: Tyrosine-protein kinase ABL2 (Homo sapiens, UniProt P42684); experiment: Inhibition of recombinant full length human C-terminal His-tagged ABL2F cytoplasmic domain expressed in baculovirus expression system using tyrosine-2 peptide as substrate incubated for 60 mins in presence of ATP by Z'-LYTE assay
[7] = target: Tyrosine-protein kinase Fgr (Homo sapiens, UniProt P09769); experiment: Inhibition of recombinant full length human C-terminal His-tagged FGR expressed in baculovirus expression system using tyrosine-2 peptide as substrate incubated for 60 mins in presence of ATP by Z'-LYTE assay
[8] = target: Tyrosine-protein kinase Mer (Homo sapiens, UniProt Q12866); experiment: Inhibition of recombinant human GST-tagged MER (578 to 872 residues) expressed in baculovirus expression system using tyrosine-2 peptide as substrate incubated for 60 mins in presence of ATP by Z'-LYTE assay
[9] = target: Tyrosine-protein kinase BTK (Homo sapiens, UniProt Q06187); experiment: Inhibition of recombinant full length human His-tagged BTK expressed in baculovirus expression system using tyrosine-2 peptide as substrate incubated for 60 mins in presence of ATP by Z'-LYTE assay
[10] = target: 5-hydroxytryptamine receptor 2A (Homo sapiens) (UniProt P28223); experiment: Displacement of [3H]ketanserin from full length human recombinant 5HT2A receptor expressed in CHOK-1 cells at 10 uM measured after 60 mins by radiometric scintillation analysis relative to control; type: cell-based
[11] = target: MAP kinase-interacting serine/threonine-protein kinase 1 (Homo sapiens, UniProt Q9BUB5); experiment: Inhibition of recombinant full length human GST-tagged MKNK1 expressed in insect cells using serine/threonine-7 peptide as substrate incubated for 60 mins in presence of ATP by Z'-LYTE assay
[12] = system: Atrial natriuretic peptide receptor 1 (Cavia porcellus); experiment: Inhibition of guniea pig ANF at 10 uM relative to control
[13] = target: Phosphatidylinositol 4-phosphate 3-kinase C2 domain-containing subunit beta (Homo sapiens, UniProt O00750); experiment: Inhibition of recombinant GST-tagged human PIK3C2B catalytic domain expressed in baculovirus expression system using PI as substrate after 1 hr in presence of ATP by Adapta assay
[14] = target: Dual specificity mitogen-activated protein kinase kinase 2 (Homo sapiens, UniProt P36507); experiment: Inhibition of recombinant full length human His-tagged MEK2 expressed in baculovirus expression system using serine/threonine-3 peptide as substrate incubated for 60 mins in presence of ATP by Z'-LYTE assay
Cytochrome P450 2C9 = Cytochrome P450 2C9 (Homo sapiens, UniProt P11712); experiment: Inhibition of CYP2C9 (unknown origin); type: ADME
[15] = target: Homeodomain-interacting protein kinase 4 (Homo sapiens, UniProt Q8NE63); experiment: Inhibition of recombinant full length human N-terminal GST-tagged HIPK4 expressed in baculovirus expression system using serine/threonine-18 peptide as substrate incubated for 60 mins in presence of ATP by Z'-LYTE assay
[16] = target: Macrophage-stimulating protein receptor (Homo sapiens, UniProt Q04912); experiment: Inhibition of recombinant human GST-tagged RON catalytic domain (983 to 1400 residues) expressed in baculovirus expression system using tyrosine-6 peptide as substrate incubated for 60 mins in presence of ATP by Z'-LYTE assay
[17] = target: Adenosine receptor A2a (Homo sapiens) (UniProt P29274); experiment: Displacement of [3H]CGS-21680 from full-length recombinant human A2A receptor expressed in HEK293 cells at 10 uM measured after 90 mins by scintillation counting method relative to control; type: cell-based
[18] = target: Substance-P receptor (Homo sapiens) (UniProt P25103); experiment: Displacement of [3H]substance P from recombinant full length human NK1R expressed in CHO cells at 10 uM after 90 mins by radiometric scintillation analysis relative to control; type: cell-based
[19] = target: Serine/threonine-protein kinase Nek6 (Homo sapiens, UniProt Q9HC98); experiment: Inhibition of recombinant full length human GST-tagged NEK6 expressed in insect expression system using serine/threonine-22 peptide as substrate incubated for 60 mins in presence of ATP by Z'-LYTE assay
[20] = target: Alpha-1A adrenergic receptor (Rattus norvegicus) (UniProt P43140); experiment: Displacement of [3H]prazosin from alpha1a adrenergic receptor in Wistar rat submaxillary gland membranes at 10 uM measured after 60 mins by scintillation counting method relative to control; type: cell membranes; details: Membrane
[21] = target: Metabotropic glutamate receptor 5 (Homo sapiens) (UniProt P41594); experiment: Displacement of [3H]quisqualic acid from full length human recombinant mGlu5 receptor expressed in CHO-K1 cells at 10 uM measured after 120 mins by radiometric scintillation analysis relative to control; type: cell-based
[22] = target: Tyrosine-protein kinase CSK (Homo sapiens, UniProt P41240); experiment: Inhibition of recombinant full length human His-tagged CSK expressed in Escherichia coli expression system using tyrosine-2 peptide as substrate incubated for 60 mins in presence of ATP by Z'-LYTE assay
[23] = target: RAC-beta serine/threonine-protein kinase (Homo sapiens, UniProt P31751); experiment: Inhibition of recombinant full length human His-tagged AKT2 expressed in baculovirus expression system using Ser/Thr-06 peptide as substrate incubated for 60 mins in presence of ATP by Z'-LYTE assay

Tyrosine-protein kinase BTK, sequence (Q06187 whole entry): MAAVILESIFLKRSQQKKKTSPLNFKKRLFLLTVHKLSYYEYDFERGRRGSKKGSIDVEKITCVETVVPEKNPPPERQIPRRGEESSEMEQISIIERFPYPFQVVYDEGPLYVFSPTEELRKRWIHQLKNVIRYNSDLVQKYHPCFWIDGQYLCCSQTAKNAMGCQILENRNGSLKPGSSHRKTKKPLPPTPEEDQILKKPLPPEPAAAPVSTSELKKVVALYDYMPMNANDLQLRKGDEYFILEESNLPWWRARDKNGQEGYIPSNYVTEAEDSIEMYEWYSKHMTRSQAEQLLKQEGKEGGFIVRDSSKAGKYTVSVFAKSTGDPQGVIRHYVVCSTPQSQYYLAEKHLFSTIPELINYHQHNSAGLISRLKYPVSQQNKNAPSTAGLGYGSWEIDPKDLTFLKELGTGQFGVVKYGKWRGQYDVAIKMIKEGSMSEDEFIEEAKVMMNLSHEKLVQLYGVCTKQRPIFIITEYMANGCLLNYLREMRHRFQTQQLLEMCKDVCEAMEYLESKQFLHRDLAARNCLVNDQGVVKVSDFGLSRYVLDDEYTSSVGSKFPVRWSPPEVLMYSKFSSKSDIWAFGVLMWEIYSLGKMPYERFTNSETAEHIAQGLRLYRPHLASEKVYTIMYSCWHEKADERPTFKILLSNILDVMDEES
MAP kinase-interacting serine/threonine-protein kinase 1, sequence (Q9BUB5 whole entry): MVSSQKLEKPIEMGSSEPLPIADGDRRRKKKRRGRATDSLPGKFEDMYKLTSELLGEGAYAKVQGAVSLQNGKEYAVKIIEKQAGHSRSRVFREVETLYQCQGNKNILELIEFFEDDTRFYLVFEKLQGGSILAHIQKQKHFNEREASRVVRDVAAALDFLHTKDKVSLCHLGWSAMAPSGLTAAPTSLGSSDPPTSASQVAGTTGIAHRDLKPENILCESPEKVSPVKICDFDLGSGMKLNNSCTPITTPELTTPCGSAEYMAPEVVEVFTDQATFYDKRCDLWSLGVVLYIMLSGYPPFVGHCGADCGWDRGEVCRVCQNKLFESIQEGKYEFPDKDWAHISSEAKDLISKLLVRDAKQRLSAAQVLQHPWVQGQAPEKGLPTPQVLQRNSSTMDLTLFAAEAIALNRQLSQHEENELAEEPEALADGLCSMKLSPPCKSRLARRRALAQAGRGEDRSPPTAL
Adenosine receptor A2a (Homo sapiens), sequence (P29274 whole entry): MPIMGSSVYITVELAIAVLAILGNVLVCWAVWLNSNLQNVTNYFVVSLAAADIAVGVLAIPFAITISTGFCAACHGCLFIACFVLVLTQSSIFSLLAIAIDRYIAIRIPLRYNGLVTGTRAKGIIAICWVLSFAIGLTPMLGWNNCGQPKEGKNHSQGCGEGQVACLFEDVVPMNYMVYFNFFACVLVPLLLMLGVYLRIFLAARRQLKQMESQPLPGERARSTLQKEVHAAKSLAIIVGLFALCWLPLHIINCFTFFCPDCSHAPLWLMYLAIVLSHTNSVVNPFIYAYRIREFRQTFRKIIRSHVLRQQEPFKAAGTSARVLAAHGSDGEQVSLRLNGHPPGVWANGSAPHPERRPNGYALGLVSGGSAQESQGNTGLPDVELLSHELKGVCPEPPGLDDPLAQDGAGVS
Tyrosine-protein kinase ABL2, sequence (P42684 whole entry, the tested form may be a part): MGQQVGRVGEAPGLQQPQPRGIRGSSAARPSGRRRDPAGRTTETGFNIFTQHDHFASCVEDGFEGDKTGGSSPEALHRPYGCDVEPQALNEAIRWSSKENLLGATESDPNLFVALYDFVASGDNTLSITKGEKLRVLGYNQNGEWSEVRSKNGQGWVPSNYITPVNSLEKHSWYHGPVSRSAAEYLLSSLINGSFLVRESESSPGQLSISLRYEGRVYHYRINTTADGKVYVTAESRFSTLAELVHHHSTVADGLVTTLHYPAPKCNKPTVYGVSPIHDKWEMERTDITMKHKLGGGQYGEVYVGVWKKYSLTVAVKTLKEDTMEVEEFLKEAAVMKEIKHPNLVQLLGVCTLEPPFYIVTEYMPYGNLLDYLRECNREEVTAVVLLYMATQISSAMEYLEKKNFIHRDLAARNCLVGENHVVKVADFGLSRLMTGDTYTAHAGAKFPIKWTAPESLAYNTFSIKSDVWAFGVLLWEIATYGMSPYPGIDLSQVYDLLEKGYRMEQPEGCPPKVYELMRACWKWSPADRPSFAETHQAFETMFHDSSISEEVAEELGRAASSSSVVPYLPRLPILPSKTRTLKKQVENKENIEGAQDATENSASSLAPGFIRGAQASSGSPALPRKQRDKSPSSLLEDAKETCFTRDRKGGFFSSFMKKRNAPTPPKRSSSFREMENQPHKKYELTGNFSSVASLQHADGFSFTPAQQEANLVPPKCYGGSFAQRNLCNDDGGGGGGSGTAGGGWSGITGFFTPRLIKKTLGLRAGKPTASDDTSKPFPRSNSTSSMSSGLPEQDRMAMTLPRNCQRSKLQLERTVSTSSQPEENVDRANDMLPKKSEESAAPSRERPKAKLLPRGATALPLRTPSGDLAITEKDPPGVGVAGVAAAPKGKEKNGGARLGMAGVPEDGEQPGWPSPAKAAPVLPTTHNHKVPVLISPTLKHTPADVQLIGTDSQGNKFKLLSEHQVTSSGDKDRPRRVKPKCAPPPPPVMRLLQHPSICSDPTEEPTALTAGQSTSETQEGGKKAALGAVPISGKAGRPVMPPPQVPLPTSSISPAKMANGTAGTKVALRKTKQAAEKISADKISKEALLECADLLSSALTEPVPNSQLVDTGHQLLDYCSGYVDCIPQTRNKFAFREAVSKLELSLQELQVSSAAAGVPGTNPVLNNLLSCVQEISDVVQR
Substance-P receptor (Homo sapiens), sequence (P25103 whole entry): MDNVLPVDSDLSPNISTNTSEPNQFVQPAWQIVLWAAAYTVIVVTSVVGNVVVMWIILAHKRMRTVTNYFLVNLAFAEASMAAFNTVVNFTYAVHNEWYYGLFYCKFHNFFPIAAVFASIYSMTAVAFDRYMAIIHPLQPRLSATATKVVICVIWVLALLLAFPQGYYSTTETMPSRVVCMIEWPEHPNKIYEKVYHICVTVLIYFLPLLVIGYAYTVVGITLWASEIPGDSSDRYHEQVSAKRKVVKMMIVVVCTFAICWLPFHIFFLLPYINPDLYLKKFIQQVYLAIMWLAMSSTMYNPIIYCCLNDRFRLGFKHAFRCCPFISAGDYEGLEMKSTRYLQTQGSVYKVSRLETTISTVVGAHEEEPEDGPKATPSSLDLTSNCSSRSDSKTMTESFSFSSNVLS
Ephrin type-A receptor 3, sequence (P29320 whole entry, the tested form may be a part): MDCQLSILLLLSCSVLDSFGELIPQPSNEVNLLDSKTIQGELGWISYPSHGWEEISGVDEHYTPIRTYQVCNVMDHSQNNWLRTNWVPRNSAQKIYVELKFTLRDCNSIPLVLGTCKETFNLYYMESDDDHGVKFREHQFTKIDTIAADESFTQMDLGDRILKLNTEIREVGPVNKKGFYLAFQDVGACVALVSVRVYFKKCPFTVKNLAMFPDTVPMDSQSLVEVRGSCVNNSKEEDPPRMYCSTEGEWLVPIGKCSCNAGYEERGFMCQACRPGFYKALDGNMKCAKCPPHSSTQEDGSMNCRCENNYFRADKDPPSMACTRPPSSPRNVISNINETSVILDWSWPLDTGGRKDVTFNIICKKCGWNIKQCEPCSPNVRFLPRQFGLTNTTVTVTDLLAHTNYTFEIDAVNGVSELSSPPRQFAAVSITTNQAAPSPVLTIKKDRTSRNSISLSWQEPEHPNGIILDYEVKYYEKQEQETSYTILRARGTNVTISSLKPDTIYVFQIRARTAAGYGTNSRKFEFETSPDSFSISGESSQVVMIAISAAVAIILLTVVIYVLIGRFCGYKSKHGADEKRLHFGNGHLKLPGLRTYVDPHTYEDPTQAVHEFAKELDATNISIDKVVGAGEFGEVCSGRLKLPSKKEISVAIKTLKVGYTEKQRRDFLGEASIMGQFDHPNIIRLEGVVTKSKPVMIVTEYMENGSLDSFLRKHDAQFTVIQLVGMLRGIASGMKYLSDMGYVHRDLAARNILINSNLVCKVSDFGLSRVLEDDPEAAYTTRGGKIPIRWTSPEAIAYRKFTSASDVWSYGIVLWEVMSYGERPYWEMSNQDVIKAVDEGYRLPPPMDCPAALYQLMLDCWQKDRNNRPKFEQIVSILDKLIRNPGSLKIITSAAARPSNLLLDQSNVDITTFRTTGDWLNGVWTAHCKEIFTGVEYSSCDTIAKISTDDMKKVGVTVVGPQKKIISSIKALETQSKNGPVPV
Mitogen-activated protein kinase kinase kinase kinase 5, sequence (Q9Y4K4 whole entry): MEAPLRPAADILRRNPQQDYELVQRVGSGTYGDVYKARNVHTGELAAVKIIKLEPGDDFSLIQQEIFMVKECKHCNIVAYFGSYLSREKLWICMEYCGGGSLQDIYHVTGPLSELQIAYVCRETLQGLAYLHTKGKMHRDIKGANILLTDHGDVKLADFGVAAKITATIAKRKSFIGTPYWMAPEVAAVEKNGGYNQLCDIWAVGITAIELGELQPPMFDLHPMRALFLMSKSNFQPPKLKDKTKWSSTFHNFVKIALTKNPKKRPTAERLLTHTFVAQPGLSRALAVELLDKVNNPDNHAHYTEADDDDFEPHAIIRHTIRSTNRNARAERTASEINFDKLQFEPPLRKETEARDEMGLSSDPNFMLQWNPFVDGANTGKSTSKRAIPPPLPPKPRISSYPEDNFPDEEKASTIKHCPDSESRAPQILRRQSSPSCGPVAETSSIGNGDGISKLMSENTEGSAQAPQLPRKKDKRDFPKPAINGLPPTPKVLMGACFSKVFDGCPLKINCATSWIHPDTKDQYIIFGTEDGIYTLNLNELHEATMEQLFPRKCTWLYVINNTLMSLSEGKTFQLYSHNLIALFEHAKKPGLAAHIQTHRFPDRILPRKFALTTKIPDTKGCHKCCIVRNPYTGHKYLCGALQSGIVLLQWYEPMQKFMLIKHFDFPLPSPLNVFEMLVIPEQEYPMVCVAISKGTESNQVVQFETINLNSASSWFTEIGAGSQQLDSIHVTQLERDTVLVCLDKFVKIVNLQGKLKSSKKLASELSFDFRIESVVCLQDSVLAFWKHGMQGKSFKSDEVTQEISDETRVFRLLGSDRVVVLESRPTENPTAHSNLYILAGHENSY

C[C@@H]1C[C@H]1C(=O)N1CCN(c2cnc(C#N)c(-c3cnn(C)c3)n2)C[C@H]1C
IC50 (SRSF protein kinase 2): > 100 µM | IC50 [1]: > 100 µM | IC50 [2]: 30.4 µM | inhibition [3]: -1% | IC50 [4]: > 100 µM | IC50 (Ephrin type-A receptor 3): > 100 µM | inhibition [5]: 10% | IC50 [6]: > 100 µM | IC50 [7]: 25.4 µM | IC50 [8]: > 100 µM | IC50 [9]: 39.6 µM | inhibition [10]: 6% | IC50 [11]: > 100 µM | inhibition [12]: 8% | IC50 [13]: 40.5 µM | IC50 [14]: > 100 µM | IC50 (Cytochrome P450 2C9): > 50 µM | IC50 [15]: > 100 µM | IC50 [16]: > 100 µM | inhibition [17]: 18% | inhibition [18]: -1% | IC50 [19]: > 100 µM | inhibition [20]: -7% | inhibition [21]: 8% | IC50 [22]: > 100 µM | IC50 [23]: > 100 µM
